The values below are quoted from earlier work in patent US8952000B2, “Cholesterol absorption inhibitor and omega 3 fatty acids for the reduction of cholesterol and for the prevention or reduction of cardiovascular, cardiac and vascular events” (Pivotal Therapeutics Inc., priority 2011, dated 2015).

Consider `O=C1[C@H](CC[C@H](O)c2ccc(F)cc2)[C@@H](c2ccc(O)cc2)N1c1ccc(F)cc1` [Ezetimibe, (3R,4S)-1-(p-fluorophenyl)-3-[(3S)-3-(p-fluorophenyl)-3-hydroxypropyl]-4-(p-hydroxyphenyl)-2-azetidinone], for which the “solubility in ethanol, methanol, and acetone” value (ethanol, methanol, acetone) is “freely to very soluble”. In addition, the solubility in water result (water) is given as “practically insoluble”.
